Measurements: ChEMBL document CHEMBL2074258 (Drug Metab Dispos, 2005)

Assays:
[1] = target: T1, Solute carrier family 22 member 2 (Rattus norvegicus, UniProt Q9R0W2); assay: TP_TRANSPORTER: inhibition pramipexole uptake in rOCT2-injected oocytes; format: functional, cell-based, Oocyte
T1 sequence (Q9R0W2 whole entry): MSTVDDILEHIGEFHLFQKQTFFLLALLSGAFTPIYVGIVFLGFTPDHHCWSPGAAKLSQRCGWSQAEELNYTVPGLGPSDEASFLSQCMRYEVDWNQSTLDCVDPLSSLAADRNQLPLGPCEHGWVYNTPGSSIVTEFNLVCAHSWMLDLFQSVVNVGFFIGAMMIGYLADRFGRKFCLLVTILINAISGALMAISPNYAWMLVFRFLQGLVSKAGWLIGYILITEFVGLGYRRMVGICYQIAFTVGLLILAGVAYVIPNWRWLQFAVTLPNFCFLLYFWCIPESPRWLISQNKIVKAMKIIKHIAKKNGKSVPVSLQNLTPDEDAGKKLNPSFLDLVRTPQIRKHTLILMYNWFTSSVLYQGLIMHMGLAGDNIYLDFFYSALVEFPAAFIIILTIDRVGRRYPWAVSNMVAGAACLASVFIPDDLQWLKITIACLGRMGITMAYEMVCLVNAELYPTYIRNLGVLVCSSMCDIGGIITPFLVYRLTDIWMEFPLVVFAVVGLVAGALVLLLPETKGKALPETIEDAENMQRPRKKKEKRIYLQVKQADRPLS

[2] = target: T2, Solute carrier family 22 member 1 (Rattus norvegicus, UniProt Q63089); assay: TP_TRANSPORTER: inhibition pramipexole uptake in rOCT1-injected oocytes; format: functional, cell-based, Oocyte
T2 sequence (Q63089 whole entry): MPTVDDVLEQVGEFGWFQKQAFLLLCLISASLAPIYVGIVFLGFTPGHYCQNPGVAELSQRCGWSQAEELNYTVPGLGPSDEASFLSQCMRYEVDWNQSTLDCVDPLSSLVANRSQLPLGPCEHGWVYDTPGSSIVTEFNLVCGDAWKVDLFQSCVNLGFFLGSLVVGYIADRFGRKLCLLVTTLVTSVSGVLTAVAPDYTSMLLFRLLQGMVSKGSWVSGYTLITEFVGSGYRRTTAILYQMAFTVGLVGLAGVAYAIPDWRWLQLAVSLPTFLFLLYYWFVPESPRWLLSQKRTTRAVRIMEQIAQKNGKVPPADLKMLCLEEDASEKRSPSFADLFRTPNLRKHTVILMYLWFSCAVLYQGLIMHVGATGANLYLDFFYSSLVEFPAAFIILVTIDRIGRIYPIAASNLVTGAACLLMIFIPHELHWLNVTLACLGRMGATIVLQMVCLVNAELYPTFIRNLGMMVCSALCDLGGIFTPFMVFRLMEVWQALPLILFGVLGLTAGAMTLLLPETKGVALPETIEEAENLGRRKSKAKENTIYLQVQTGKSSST

[3] = target: T1, Solute carrier family 22 member 2; assay: TP_TRANSPORTER: uptake in Xenopus laevis oocytes; conditions: Xenopus laevis oocytes expressing the transporter
[4] = substrate: CCCN[C@H]1CCc2nc(N)sc2C1; assay: cells, lysate or membranes named

Molecule: NC12CC3CC(CC(C3)C1)C2 [AMANTADINE]
- IC50 [1]: 271 µM
- IC50 [2]: 76.3 µM

Molecule: C[C@]12C[C@H](O)[C@H]3[C@@H](CCC4=CC(=O)CC[C@@]43C)[C@@H]1CC[C@@H]2C(=O)CO [CORTICOSTERONE]
- IC50 [1]: 10.7 µM
- IC50 [2]: 164 µM

Molecule: CCCN[C@H]1CCc2nc(N)sc2C1 [PRAMIPEXOLE]
- Km [3]: 17 µM

Molecule: CCN(CC)CCNC(=O)c1ccc(N)cc1 [PROCAINAMIDE]
- IC50 [1]: 167 µM

B1: Solute carrier family 22 member 2 (Rattus norvegicus) (protein)
chain: T1 sequence (Q9R0W2 whole entry)
- Km [4]: 17 µM
